Like-named read-outs stand apart in the source and are kept apart here.
Experiments:
[1] = cited from earlier work
[2] = Description: A composition was prepared containing 4.0 μg Dexmedetomidine and 50 mg dextrose to adjust tonicity with sufficient water to bring the total volume to 1 mL.
Remark: listed apart in the source
[3] = DEHP used as plasticizer in PVC bags; cited from earlier work

time the solution will be stable at room temperature ([2]; Example 1 solution (dextrose) in Nexcel bag, extrapolated from the accelerated test): about 24 months
adsorption or absorption by the ethylene-vinyl acetate copolymer inner-most bag layer ([2]; Example 1 solution, Nexcel bag, storage tests): not adsorbed or absorbed
dexmedetomidine retained after autoclaving in moist steam (5.5 mg/mL sodium chloride and 28 gram/mL sodium acetate and 320 mg/mL glacial acetic acid as buffer): 90.1%
retention of the dexmedetomidine after autoclaving in moist steam (buffer (28 g/mL sodium acetate and 320 mg/mL glacial acetic acid) with dextrose as tonicity adjusting agent, Nexcel bag): 99.4%
retention of the dexmedetomidine after autoclaving in moist steam (buffer (28 g/mL sodium acetate and 320 mg/mL glacial acetic acid) with sucrose as tonicity adjusting agent, Nexcel bag): 99.0%
dexmedetomidine retained after autoclaving in moist steam (solution comprising 9 mg/mL sodium chloride, Nexcel bag): 93%
Compound: Cc1cccc([C@H](C)c2cnc[nH]2)c1C [dexmedetomidine, (S)-4-[1-(2,3-dimethylphenyl)ethyl]-3H-imidazole]
potency loss ([1]; CR3 elastomer copolyester ether bags and PVC bags, autoclaving): 20%
drug recovered in MeOH rinse of emptied bags ([1]; CR3 elastomer copolyester ether bags): Nearly all
drug recovered in MeOH rinse of emptied bags ([1]; PVC bags): 1%
total percent of impurities ([1]; autoclaved premixed composition in PVC and CR3 bags): less than 20%
drug loss ([1]; formulation with a buffer system, plastic bags): ~10%
dexmedetomidine lost through adsorption ([1]; premixed solution in plastic materials): up to 20%
solubility in DEHP [3]: soluble

Source: patent US9717796B1, “Heat sterilizeable, premixed, ready to use dexmedetomidine solution packaged in a flexible plastic container” (SLYPHARMA, LLC, priority 2016, dated 2017)
